Assays:
Test in all cases: TUNEL analysis of apoptosis
Assay type in all cases: cell-based, mouse
5TGM1 = conditions: 48 h
Source text: (§1) FIGS. 7A-7C. TUNEL analysis of PLATINUM-401-mediated apoptosis. (FIG. 7A) Normal NIH3T3 fibroblasts and their v-Src-transformed counterparts (NIH3T3/v-Src), human breast carcinoma cell lines (MDA-MB-453, MDA-MB-435, MDA-MB-468, and MDA-MB-231), human non-small cell lung cancer cell line (A549), human prostate cancer cell line (DU145), multiple myeloma 5TGM1 (mouse) and U266 (human) cell lines, mouse melanoma cell line (B16) and human pancreatic cancer cell line (Panc1) were all treated with or without PLATINUM-401 for 48 h and analyzed by TUNEL for DNA damage. For each cell line, the activated Stat3 status is indicated as (−), no constitutively-active Stat3 and (+), constitutively-active Stat3 (see FIG. 5A). Data are representative of 3 independent determinations; (FIG. 7B) Human breast cancer cell lines (MDA-MB-453, MDA-MB-468 and MDA-MB-435) were transfected with or without Stat3β or Stat3 antisense (Stat3AS), or were treated with or without Stat3 peptidomimetic inhibitor, ISS 610 (1 mM) or PLATINUM-401 (5 μM)). Forty-eight hours afterwards, cells were harvested and processed for TUNEL analysis; (FIG. 7C) The viral Src-transformed NIH3T3/v-Src fibroblasts were transfected with or without wild-type Stat3 (pRc/CMV Stat3 Flag) and treated with or without 5 μM PLATINUM-401 for 36 h. Cells were subsequently harvested for nuclear extracts preparation and Stat3 DNA-binding assay in vitro with EMSA analysis (left panel), or were processed for TUNEL analysis (right panel).
(§2) Cell proliferation and TUNEL assays—Proliferating cells were first treated with or without PLATINUM-401 for up to 48 h. A portion of cells were harvested for BrdU incorporation following the manufacturer's (BD Biosciences Pharmingen, San Diego, Calif.) instructions and analyzed by flow cytometry. Harvested cells were also analyzed for apoptosis via detection of TdT-mediated dUTP nick-end labeling (TUNEL) assay using Apoptosis Detection Systems Fluorescein according to the manufacturer's (Roche, Indianapolis, Ind.) instructions. Oligonucleotides and plasmids Transfections. The Stat3 antisense (5′-[…]-3′) (SEQ ID NO:3) or control mismatch oligonucleotides (5′-[…]-3′) (SEQ ID NO:4) were synthesized using phosphorothioate chemistry and were synthesized with 2′-Omethoxyethyl modification of the five terminal nucleotides (underlined; (Mora et al., 2002; Karras et al., 2000)) to increase stability. Transfections of Stat3AS and plasmids were carried out with Lipofectamine 2000 (LF) according to the manufacturer's instructions (Invitrogen, Carlsbad, Calif.). Briefly, cells were seeded at 1-2×10^6 cells/10-cm tissue-culture plates 18 h before transfection. Immediately before transfection, cells were washed once with PBS. Cells were transfected with luciferase reporters (4 μg) in the presence or absence of v-Src (4 μg), or were transfected with Stat3β (4 μg) or pRC/CMV Stat3 Flag (4 μg). Stat3AS transfections were carried out LF alone, or with LF/Stat3 antisense oligonucleotides, or LF/Stat3 mismatch oligonucleotides (final concentration of the oligonucleotides was 250 nM). After 2-3 h, the transfection medium was aspirated and cells washed with PBS before fresh medium added containing 10% FBS was added.
(§3) Cells were analyzed for DNA-strand breaks by TUNEL staining. […] The incidence of apoptosis correlated with the prevalence of constitutively-active Stat3 in malignant cells (FIG. 7, lower panel). […]

B16 = conditions: 48 h
Source text: as §1, §2, §3

NIH3T3/v-Src = system: NIH3T3/v-Src
Source text: as §1, §2, §3

NIH3T3 = conditions: 48 h, no aberrant Stat3 activity
Source text: as §1, §2, §3

## CC(O)CN1CCN(CC(C)O)CC1 (centres unmarked) [PLATINUM-401]
5TGM1
  TUNEL staining: Significant TUNEL staining
B16
  TUNEL staining: Significant TUNEL staining
NIH3T3/v-Src; 48 h
  TUNEL staining: Significant TUNEL staining
NIH3T3/v-Src; NIH3T3/v-Src transfected with wild-type Stat3, 5 μM, 36 h
  compound-mediated apoptosis on overexpression of Stat3: minimizes the extent
NIH3T3
  TUNEL staining: no TUNEL staining

— patent US11571418B2, “Platinum compounds that inhibit constitutive STAT3 signaling and induce cell cycle arrest and apoptosis of malignant cells” (H. LEE MOFFITT CANCER CENTER AND RESEARCH INSTITUTE, INC., priority 2011, dated 2023)
